IC50 and solubility data for 32 molecules are collected here from patent US20220380319A1 (Bial - R&D Investments, S.A., priority 2019, published 2022).

Structures are written as SMILES. Converted amounts (≈) assume the structure as drawn.

For one series, the target named is T1, acid ceramidase (Homo sapiens, UniProt Q13510).
T1 construct: Cell lysates overexpressing acid ceramidase were used as the enzyme source; expressed in transfected cells
T1 sequence (Q13510 22-395): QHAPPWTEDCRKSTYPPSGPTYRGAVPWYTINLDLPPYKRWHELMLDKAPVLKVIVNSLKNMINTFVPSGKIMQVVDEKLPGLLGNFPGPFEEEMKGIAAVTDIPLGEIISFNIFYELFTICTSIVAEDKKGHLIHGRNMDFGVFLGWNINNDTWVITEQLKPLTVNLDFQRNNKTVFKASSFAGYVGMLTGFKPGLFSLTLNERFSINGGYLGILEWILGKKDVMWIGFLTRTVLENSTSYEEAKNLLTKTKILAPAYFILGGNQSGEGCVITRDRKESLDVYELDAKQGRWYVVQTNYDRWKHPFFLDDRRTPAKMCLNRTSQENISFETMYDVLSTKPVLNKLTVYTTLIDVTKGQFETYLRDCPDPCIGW
The series can be described thus: Acid ceramidase inhibition, biochemical fluorescent assay with cell lysates overexpressing acid ceramidase, substrate Rbm14-12. As to conditions: substrate Rbm14-12 6.3 μM, pH 4.5. The method, boiled down: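 IC50 derived by four-parameter fitting of fluorescence (ex360 nm, em446 nm) produced after 1 hr in methanol/NaIO4/glycine stop buffer, pH 10.6. Reaction: 6.3 μM Rbm14-12, 1 hr RT, following 1 hr RT compound preincubation with 10 μg overexpressing-cell lysate protein in pH 4.5 NaAC/NaCl buffer.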

Series [1] is described as follows: Compound solubility in water.

The IC50 is the concentration that gives 50% inhibition. A high value points to weaker potency. As usually defined, the solubility is how much of the substance goes into solution per volume. Low values mean little dissolved substance, high ones much dissolved substance.

On acid ceramidase, `CC(C)CCNC(=O)n1cnc2c(N3CCN(C)CC3=O)cccc21` [Example 162, N-iso-Pentyl-4-(4-methyl-2-oxopiperazin-1-yl)-1H-benzo[d]imidazole-1-carboxamide] yielded an IC50 greater than 1000 nM. This molecule also yielded a solubility in series [1] of 18 µg/mL (≈ 52.4 µM).

For `CC(C)CCNC(=O)n1cnc2c(N3CCN(C)C(=O)C3)cccc21` [Example 163, N-iso-Pentyl-4-(4-methyl-3-oxopiperazin-1-yl)-1H-benzo[d]imidazole-1-carboxamide], the half-maximal inhibitory concentration (IC50) against acid ceramidase fell in the range of 200 to 1000 nM. In series [1], this molecule had a solubility of 14 µg/mL (≈ 40.8 µM).

On acid ceramidase, `CC(C)CCNC(=O)n1cnc2c(N3CC(C)(C#N)C3)cccc21` [Example 165, 4-(3-Cyano-3-methylazetidin-1-yl)-N-isopentyl-1H-benzo[d]imidazole-1-carboxamide] returned an IC50 of 200 to 1000 nM. The molecule also showed a solubility in series [1] of 1 µg/mL (≈ 3.07 µM).

As for `CC(C)CCNC(=O)n1cnc2c(N3C[C@H]4C[C@@H]3CO4)cccc21` [Example 166, 4-((1R,4R)-2-Oxa-5-azabicyclo[2.2.1]heptan-5-yl)-N-iso-pentyl-1H-benzo[d]imidazole-1-carboxamide], the IC50 at acid ceramidase was in the range of 200 to 1000 nM. In addition, the concentration in solution in series [1] (solubility) was 12 µg/mL (≈ 36.5 µM).

On to `CC(C)CCNC(=O)n1cnc2c(N3C[C@@H](C)O[C@@H](C)C3)cccc21` [Example 167, 4-((2S,6R)-2,6-Dimethylmorpholino)-N-iso-pentyl-1H-benzo[d]imidazole-1-carboxamide], for which the concentration for half-maximal inhibition (IC50) against acid ceramidase was 200 to 1000 nM. The same molecule returned a solubility in series [1] of 4 µg/mL (≈ 11.6 µM).

In the case of `CC(C)CCNC(=O)n1cnc2c(N3CCOC[C@@H]3C)cccc21` [Example 169, (S)—N-iso-Pentyl-4-(3-methylmorpholino)-1H-benzo[d]imidazole-1-carboxamide], the IC50 against acid ceramidase lay in the range of 200 to 1000 nM. The molecule also came in with a solubility in series [1] of 23 µg/mL (≈ 69.6 µM).

Turning to `CC(C)CCNC(=O)n1cnc2c(N3CCOC(C)(C)C3)cccc21` [Example 170, 4-(2,2-Dimethylmorpholino)-N-isopentyl-1H-benzo[d]imidazole-1-carboxamide], on acid ceramidase, the IC50 lay in the range of 200 to 1000 nM. For the same molecule, the concentration in solution in series [1] (solubility) came to 14 µg/mL (≈ 40.6 µM).

Regarding `CC(C)CCNC(=O)n1cnc2c(N3CCO[C@@H](C)C3)cccc21` [Example 171, (S)—N-iso-Pentyl-4-(2-methylmorpholino)-1H-benzo[d]imidazole-1-carboxamide], on acid ceramidase, the IC50 was in the range of 200 to 1000 nM. The same molecule gave a solubility in series [1] of 15 µg/mL (≈ 45.4 µM).

`CC(C)CCNC(=O)n1cnc2c(N3CCO[C@@H](C(C)C)C3)cccc21` [Example 172a, (S)—N-iso-Pentyl-4-(2-iso-propylmorpholino)-1H-benzo[d]imidazole-1-carboxamide]: on acid ceramidase, the IC50 is 200 to 1000 nM. Besides, the solubility in series [1] amounted to 4 µg/mL (≈ 11.2 µM).

`CC(C)CCNC(=O)n1cnc2c(N3CCO[C@H](C(C)C)C3)cccc21` [Example 172b, (R)—N-iso-pentyl-4-(2-iso-propylmorpholino)-1H-benzo[d]imidazole-1-carboxamide] showed an IC50 at acid ceramidase of 200 to 1000 nM. The solubility in series [1] stood at 4 µg/mL (≈ 11.2 µM).

At acid ceramidase, `CC(C)CCNC(=O)n1cnc2c(N3CCCOCC3)cccc21` [Example 173, N-iso-Pentyl-4-(1,4-oxazepan-4-yl)-1H-benzo[d]imidazole-1-carboxamide] registered an IC50 of 200 to 1000 nM. Further, in series [1], the solubility stood at 17 µg/mL (≈ 51.4 µM).

`CC(C)CCNC(=O)n1cnc2c(N3CCO[C@@H](Cc4ccccc4)C3)cccc21` [Example 174, (S)-4-(2-Benzylmorpholino)-N-iso-pentyl-1H-benzo[d]imidazole-1-carboxamide]: the concentration for half-maximal inhibition (IC50) at acid ceramidase lay in the range of 200 to 1000 nM. Besides, the concentration in solution in series [1] (solubility) came to 1 µg/mL (≈ 2.46 µM).

For the molecule `CC(C)CCNC(=O)n1cnc2c(N3CCC4(CC3)COC4)cccc21` [Example 175, N-iso-Pentyl-4-(2-oxa-7-azaspiro[3.5]nonan-7-yl)-1H-benzo[d]imidazole-1-carboxamide], the IC50 on acid ceramidase fell in the range of 200 to 1000 nM. The same molecule had a solubility in series [1] of 18 µg/mL (≈ 50.5 µM).

On acid ceramidase, `CC(C)CCNC(=O)n1cnc2c(N3CC4(COC4)C3)cccc21` [Example 176] returned an IC50 of 200 to 1000 nM. Besides, the concentration in solution in series [1] (solubility) was 22 µg/mL (≈ 67 µM).

Molecule `COC1(C)CN(c2cccc3c2ncn3C(=O)NCCC(C)C)C1` [Example 177, N-iso-Pentyl-4-(3-methoxy-3-methylazetidin-1-yl)-1H-benzo[d]imidazole-1-carboxamide] displayed a 50% inhibitory concentration (IC50) against acid ceramidase of 200 to 1000 nM. The molecule also gave a solubility in series [1] of 13 µg/mL (≈ 39.3 µM).

The molecule `N#Cc1cc(N2CCOCC2)c2ncn(C(=O)NCCCC3CC3)c2c1` [Example 178, 6-Cyano-N-(3-cyclopropylpropyl)-4-morpholino-1H-benzo[d]imidazole-1-carboxamide] returned an IC50 against acid ceramidase of less than 200 nM. Further, the solubility in series [1] turned out to be 2 µg/mL (≈ 5.66 µM).

On acid ceramidase, `CC(C)CCNC(=O)n1cnc2c(N3CCOCC3)cc(C#N)cc21` [Example 179, 6-Cyano-N-iso-pentyl-4-morpholino-1H-benzo[d]imidazole-1-carboxamide] returned a 50% inhibitory concentration (IC50) of less than 200 nM. The amount in solution in series [1] (solubility) came to 10 µg/mL (≈ 29.3 µM).

`CC(C)CCNC(=O)n1cnc2c(N3CCN(C)CC3)cc(C#N)cc21` [Example 180, 6-Cyano-N-iso-pentyl-4-(4-methylpiperazin-1-yl)-1H-benzo[d]imidazole-1-carboxamide] showed a half-inhibitory concentration (IC50) on acid ceramidase of less than 200 nM. This molecule also showed a solubility in series [1] of 23 µg/mL (≈ 64.9 µM).

`CC(C)CCNC(=O)n1cnc2c(C3CCN(C)CC3)cccc21` [Example 182, N-iso-Pentyl-4-(1-methylpiperidin-4-yl)-1H-benzo[d]imidazole-1-carboxamide]: the IC50 against acid ceramidase was 200 to 1000 nM. This molecule also returned a solubility in series [1] of 32 µg/mL (≈ 97.4 µM).

`COc1nc2ccc(N3CCOCC3)cc2n1C(=O)NCCCC1(C(F)(F)F)CC1` [Example 183a, 2-Methoxy-6-morpholino-N-(3-(1-(trifluoromethyl)cyclopropyl)propyl)-1H benzo[d]imidazole-1-carboxamide] came in with a half-maximal inhibitory concentration (IC50) against acid ceramidase of less than 200 nM. In series [1], this molecule showed a solubility of 15 µg/mL (≈ 35.2 µM).

At acid ceramidase, `COc1nc2cc(N3CCOCC3)ccc2n1C(=O)NCCCC1(C(F)(F)F)CC1` [Example 183b, 2-methoxy-5-morpholino-N-(3-(1-(trifluoromethyl)cyclopropyl)propyl)-1H-benzo[d]imidazole-1-carboxamide] showed an IC50 of less than 200 nM. The same molecule gave a solubility in series [1] of 3 µg/mL (≈ 7.04 µM).

Take `CC(C)(C)CCNC(=O)n1cnc2c(N3CCN(C4CC4)CC3)cccc21` [Example 185, 4-(4-Cyclopropylpiperazin-1-yl)-N-(3,3-dimethylbutyl)-1H-benzo[d]imidazole-1-carboxamide]: the 50% inhibitory concentration (IC50) on acid ceramidase was in the range of 200 to 1000 nM. The molecule also gave a solubility in series [1] of 2 µg/mL (≈ 5.41 µM).

With `CC(C)(C)CCCNC(=O)n1cnc2c(N3CCOCC3)cccc21` [Example 186, N-(4,4-Dimethylpentyl)-4-morpholino-1H-benzo[d]imidazole-1-carboxamide], the IC50 on acid ceramidase was less than 200 nM. In addition, in series [1], the solubility was 10 µg/mL (≈ 29 µM).

The molecule `COc1nc2ccccc2n1C(=O)NCCCCn1ccc(C(C)(C)C)n1` [Example 187, N-(4-(3-(tert-Butyl)-1H-pyrazol-1-yl)butyl)-2-methoxy-1H-benzo[d]imidazole-1-carboxamide] gave an IC50 on acid ceramidase of 200 to 1000 nM. Besides, the concentration in solution in series [1] (solubility) was 22 µg/mL (≈ 59.5 µM).

In turn, `COc1nc2cc(N3CCOCC3)ccc2n1C(=O)NCCCCn1ccc(C(C)(C)C)n1` [Example 188a, N-(4-(3-(tert-Butyl)-1H-pyrazol-1-yl)butyl)-2-methoxy-5-morpholino-1H-benzo[d]imidazole-1-carboxamide] registered a concentration for half-maximal inhibition (IC50) against acid ceramidase of 200 to 1000 nM. The molecule also yielded a solubility in series [1] of 27 µg/mL (≈ 59.4 µM).

In turn, `COc1nc2ccc(N3CCOCC3)cc2n1C(=O)NCCCCn1ccc(C(C)(C)C)n1` [Example 188b, N-(4-(3-(tert-butyl)-1H-pyrazol-1-yl)butyl)-2-methoxy-6-morpholino-1H-benzo[d]imidazole-1-carboxamide] had an IC50 against acid ceramidase of 200 to 1000 nM. In series [1], this molecule came in with a solubility of 26 µg/mL (≈ 57.2 µM).

Consider `CCOc1nc2cc(N3CCOCC3)ccc2n1C(=O)NCCCc1ccccc1` [Example 189a, 2-Ethoxy-5-morpholino-N-(3-phenylpropyl)-1H-benzo[d]imidazole-1-carboxamide], for which the half-maximal inhibitory concentration (IC50) against acid ceramidase was less than 200 nM. Moreover, the solubility in series [1] is 2 µg/mL (≈ 4.9 µM).

`CCOc1nc2ccc(N3CCOCC3)cc2n1C(=O)NCCCc1ccccc1` [Example 189b, 2-ethoxy-6-morpholino-N-(3-phenylpropyl)-1H-benzo[d]imidazole-1-carboxamide] had a half-inhibitory concentration (IC50) on acid ceramidase of less than 200 nM. For the same molecule, the solubility in series [1] was determined as 3 µg/mL (≈ 7.34 µM).

On to `COCCOc1nc2cc(N3CCOCC3)ccc2n1C(=O)NCCCc1ccccc1` [Example 190a, 2-(2-Methoxyethoxy)-5-morpholino-N-(3-phenylpropyl)-1H-benzo[d]imidazole-1 carboxamide], for which the IC50 against acid ceramidase was less than 200 nM. The same molecule gave a solubility in series [1] of 17 µg/mL (≈ 38.8 µM).

Consider `COCCOc1nc2ccc(N3CCOCC3)cc2n1C(=O)NCCCc1ccccc1` [Example 190b, 2-(2-methoxyethoxy)-6-morpholino-N-(3-phenylpropyl)-1H-benzo[d]imidazole-1-carboxamide], for which the 50% inhibitory concentration (IC50) at acid ceramidase was less than 200 nM. Besides, in series [1], the solubility was found to be 16 µg/mL (≈ 36.5 µM).

The molecule `COCCOc1nc2ccccc2n1C(=O)NCCCc1ccccc1` [Example 191, 2-(2-Methoxyethoxy)-N-(3-phenylpropyl)-1H-benzo[d]imidazole-1-carboxamide] returned an IC50 against acid ceramidase of less than 200 nM. Also, in series [1], the concentration in solution (solubility) was 4 µg/mL (≈ 11.3 µM).

On acid ceramidase, `CN1CCN(c2cccc3c2ncn3C(=O)NCCCc2ccccc2)CC1` [Example 192, 4-(4-Methylpiperazin-1-yl)-N-(3-phenylpropyl)-1H-benzo[d]imidazole-1-carboxamide] showed an IC50 of less than 200 nM. Besides, the solubility in series [1] came to 12 µg/mL (≈ 31.8 µM).
